The record followed here is patent US5691361A, “1,4-dihydropyridine derivatives, a process for their preparation and their use for influencing the blood flow” (priority 1995, dated 1997).

The subject of assay [1] is rabbit aorta strips. The assay is described as follows: Vasoconstrictory effect in rabbit aorta strips at low depolarizing conditions (10 mM K+). The format is cell-based. Conditions: for EC50: Oryctolagus cuniculus, rabbit aorta strips predepolarized with 10 mM K+. As for the experimental part:
The vasoconstrictory effects are measured at low depolarizing conditions in rabbit aorta strips. 10 mM K^+ is used to obtain a low starting concentration. Subsequently, increasing concentrations of the test compound are added in order to achieve an increase in contraction.
The EC50 (negative logarithm of the molar concentration required to increase the calcium induced contraction of low K^+ depolarized rabbit aorta by 50%) is analysed by interpolation of the corresponding concentration-response curves (table 4).

The subject of assay [2] is rabbit aorta. As to the kind of experiment: Vasodilatory effect: inhibition of calcium-induced contraction of K+-depolarized isolated rabbit aorta strips. As to conditions: Oryctolagus cuniculus. In kind it is cell-based, white New Zealand rabbits. As to the method:
(§1) The vasodilatory effects are tested as follows: an isolated aorta of the thorax of white New Zealand rabbits is secured in an organ bath. The contractile activity of the helical throacic aorta strip is recorded after depolarization with Krebs solution without calcium (35 mM, potassium) and addition of external calcium pulses (1.5 mM). The compounds are added in increasing concentrations before calcium is reintroduced.

In assay [3] the test system is left stimulated rabbit atrium / rabbit aorta. The assay is described as follows: Tissue selectivity: ratio of IC50 in left stimulated isolated rabbit atrium to IC50 in K+-depolarized rabbit aorta. The format is cell-based. Conditions: ratio of IC50 in left stimulated rabbit atrium and IC50 in rabbit aorta. As to the method: as §1
The electrical stimulation is fixed at 1 Hz. After one hour equilibration the percentage contraction is set at 100%, increased concentrations of the compounds are added to the bath every 15 minutes and the changes in the contractile force are recorded. The IC50 values are calculated by interpolation from the concentration-effect relationship determined in each of the experiments.

In assay [4] the test system is spontaneously hypertensive rats (SHR). The assay is described as follows: Antihypertensive activity in spontaneously hypertensive rats (systolic blood pressure, tail plethysmography). The format is in vivo, spontaneously hypertensive rats (SHR) of Okamoto strain. Conditions: Rattus norvegicus, single oral dose 20 mg/kg, 2 hours after treatment. As for the experimental part: The antihypertensive activity of the compounds of the invention is tested in spontaneously hypertensive rats (SHR) of Okamoto strain. Systolic blood pressure is monitored by tail plethysmography. The animals are trained for two weeks for the monitoring process. On the day of the experiment the rats are placed in an oven for two hours at 31°±1° C. and blood pressure is recorded graphically. The measurement recorded is the average of five measurements taken in each case. Only animals with basic values of systolic blood pressure over 170 mm Hg are considered hypertensive. After 24 hours fasting the compound to be tested (20 mg/kg) and/or a carrier (20% PEG 400 in 0.5% aqueous methyl cellulose (10 ml/kg)) is orally administered to the selected hypertensive animals by means of a gastric cannula. The values are expressed in percentage variation 2 hours after treatment.

A word on the EC50: it is the concentration at which the effect is half-maximal. The low end stands for greater potency, the high end for weaker potency. For `COC(=O)C1=C(C)NC(C)=C([N+](=O)[O-])C1c1ccccc1C(F)(F)F` (stereo not drawn) [BayK-8644, 2,6-dimethyl-3-nitro-4-(2-trifluoromethylphenyl)-1,4-dihydropyridine-5-carboxylic acid methylester, reference compound], the response in assay [1] was half-maximal at 13 nM (EC50).
As to `CC1=C(C(=O)OCN2C(=O)c3ccccc3S2(=O)=O)C(c2cccc([N+](=O)[O-])c2)C(C(=O)OC(C)(C)C)=C(C)N1` (stereo not drawn) [Example 53, 5-Tert.-butoxycarbonyl-2,6-dimethyl-4-(3-nitrophenyl)-1,4-dihydropyridine-3-carboxylic acid-N-(1,2-benzisothiazolyl-3(2H)one-1,1-dioxide)-methylester], in assay [1], the “vasoconstrictory properties (in words)” value was “has vasoconstrictory properties” and the concentration for a half-maximal effect (EC50) came to 9.3 nM.
By IC50 is commonly meant the concentration at which inhibition is half-maximal. On to `CC1=C(C(=O)OCCN2C(=O)c3ccccc3S2(=O)=O)C(c2ccccc2[N+](=O)[O-])C(C(=O)OC(C)(C)C)=C(C)N1` (stereo not drawn) [Example 54, 5-Tert.-butoxycarbonyl-2,6-dimethyl-4-(2-nitrophenyl)-1,4-dihydropyridine-3-carboxylic acid-2-[N-(1,2-benzisothiazolyl-3(2H)one-1,1-dioxide)]-ethylester], for which the IC50 in assay [2] came to 0.7 nM. Besides, the “Selectivity index (Atrium/Aorta)” value in assay [3] amounted to 41. This compound also had a change in vivo at 20 mg/kg in assay [4] of 23.4%.
For the compound `CC1=C(C(=O)OCCN2C(=O)c3ccccc3S2(=O)=O)C(c2cccc(Cl)c2Cl)C(C(=O)OC(C)(C)C)=C(C)N1` (stereo not drawn) [Example 55, 5-Tert.-butoxycarbonyl-4-(2,3-dichlorophenyl)-2,6-dimethyl-1,4-dihydropyridine-3-carboxylic acid-2-[N-(1,2-benzisothiazolyl-3(2H)one-1,1-dioxide)]-ethylester], the IC50 in assay [2] is 2.3 nM. The “Selectivity index (Atrium/Aorta)” value in assay [3] came to 122. This compound also showed a change in vivo at 20 mg/kg in assay [4] of 35.8%.
Regarding `COC(=O)C1=C(C)NC(C)=C(C(=O)OC)C1c1ccccc1[N+](=O)[O-]` [nifedipine, 2,6-dimethyl-4-(2-nitrophenyl)-1,4-dihydropyridine-3,5-dicarboxylic acid 3,5-dimethylester, reference compound], the IC50 in assay [2] was found to be 2.9 nM. Further, the “Selectivity index (Atrium/Aorta)” value in assay [3] was found to be 39. This compound also returned a change in vivo at 20 mg/kg in assay [4] of 35.4%.
